Data from patent publication US20250230171A1 (MOMA Therapeutics, Inc., priority 2023, published 2025).

Experiments:
[1] = tested on: DLD1 BRCA2 (−/−) cells; assay: 7-day cell viability assay (CellTiter-Glo), DLD1 BRCA2 (−/−); type: cell-based, human; conditions: Homo sapiens, DLD-1, 168 h, 7-day CellTiter-Glo, n=2, read-out: Viability IC50 (uM) DLD1 BRCA2 null
Procedure, shortened: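 7-day growth assay in DLD1 cells with or without BRCA2; seeding densities chosen to keep log-linear growth. Compound: 10 uM top, 3-fold, 9 points. Endpoint: CTG ATP luminescence at RT.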

[2] = tested on: DLD1 WT cells; assay: 7-day cell viability assay (CellTiter-Glo), DLD1 parental (WT); type: cell-based, human; conditions: Homo sapiens, DLD-1, 168 h, 7-day CellTiter-Glo, n=2

Compound | IC50 [1] [µM] | IC50 [2] [µM]
COc1nnc(Cl)cc1-c1cc(C)ncc1C(=O)Nc1nc2c(s1)CN(C(=O)c1ccc(C#N)c(C)n1)C2 [Example 981, 4-(6-chloro-3-methoxypyridazin-4-yl)-N-(5-(5-cyano-6-methylpicolinoyl)-5,6-dihydro-4H-pyrrolo[3,4-d]thiazol-2-yl)-6-methylnicotinamide] | 0.001 to 0.1 | ≥ 10
COc1cnc(Cl)cc1-c1cc(C)ncc1C(=O)Nc1nc2c(s1)CN(C(=O)c1ccc(OC(F)F)nc1OC)C2 [Example 985, 2′-chloro-N-(5-(6-(difluoromethoxy)-2-methoxynicotinoyl)-5,6-dihydro-4H-pyrrolo[3,4-d]thiazol-2-yl)-5′-methoxy-6-methyl-[4,4′-bipyridine]-3-carboxamide] | 0.001 to 0.1 | ≥ 10
COc1cnc(Cl)cc1-c1cc(C)ncc1C(=O)Nc1nc2c(s1)CN(C(=O)c1cnc(C(F)(F)F)c(OC)n1)C2 [Example 986, 2′-chloro-5′-methoxy-N-(5-(6-methoxy-5-(trifluoromethyl)pyrazine-2-carbonyl)-5,6-dihydro-4H-pyrrolo[3,4-d]thiazol-2-yl)-6-methyl-[4,4′-bipyridine]-3-carboxamide] | 0.001 to 0.1 | ≥ 10
COc1cnc(Cl)cc1-c1cc(C)ncc1C(=O)Nc1nc2c(s1)CN(C(=O)c1nc(OC)c(C(F)(F)F)cc1C)C2 [Example 987, 2′-chloro-5′-methoxy-N-(5-(6-methoxy-3-methyl-5-(trifluoromethyl)picolinoyl)-5,6-dihydro-4H-pyrrolo[3,4-d]thiazol-2-yl)-6-methyl-[4,4′-bipyridine]-3-carboxamide] | 0.001 to 0.1 | ≥ 10
COc1cnc(Cl)cc1-c1cc(C)ncc1C(=O)Nc1nc2c(s1)CN(C(=O)c1cc(C)c(C(F)(F)F)nc1OC)C2 [Example 989, 2′-chloro-5′-methoxy-N-(5-(2-methoxy-5-methyl-6-(trifluoromethyl)nicotinoyl)-5,6-dihydro-4H-pyrrolo[3,4-d]thiazol-2-yl)-6-methyl-[4,4′-bipyridine]-3-carboxamide] | 0.001 to 0.1 | ≥ 10
COc1cnc(Cl)cc1-c1cc(C)ncc1C(=O)Nc1nc2c(s1)CN(C(=O)c1cnc(OC(F)F)c(C)n1)C2 [Example 990, 2′-chloro-N-(5-(5-(difluoromethoxy)-6-methylpyrazine-2-carbonyl)-5,6-dihydro-4H-pyrrolo[3,4-d]thiazol-2-yl)-5′-methoxy-6-methyl-[4,4′-bipyridine]-3-carboxamide] | 0.001 to 0.1 | ≥ 10
COc1ncc(C(F)(F)F)c(C(=O)N2Cc3nc(NC(=O)c4cnc(C)cc4-c4cc(Cl)ncc4OC)sc3C2)n1 [Example 994, 2′-chloro-5′-methoxy-N-(5-(2-methoxy-5-(trifluoromethyl)pyrimidine-4-carbonyl)-5,6-dihydro-4H-pyrrolo[3,4-d]thiazol-2-yl)-6-methyl-[4,4′-bipyridine]-3-carboxamide] | 0.001 to 0.1 | ≥ 10
COc1cnc(Cl)cc1-c1cc(C)ncc1C(=O)Nc1nc2c(s1)CN(C(=O)c1ccc(OC(F)(F)F)c(C)n1)C2 [Example 995, 2′-chloro-5′-methoxy-6-methyl-N-(5-(6-methyl-5-(trifluoromethoxy)picolinoyl)-5,6-dihydro-4H-pyrrolo[3,4-d]thiazol-2-yl)-[4,4′-bipyridine]-3-carboxamide] | 0.001 to 0.1 | ≥ 10
COc1nc(C(F)(F)F)ccc1C(=O)N1Cc2nc(NC(=O)c3cnc(C)cc3-c3cc(Cl)nnc3OC)sc2C1 [Example 996, 4-(6-chloro-3-methoxypyridazin-4-yl)-N-(5-(2-methoxy-6-(trifluoromethyl)nicotinoyl)-5,6-dihydro-4H-pyrrolo[3,4-d]thiazol-2-yl)-6-methylnicotinamide] | 0.001 to 0.1 | ≥ 10
COc1cnc(Cl)cc1-c1cc(C)ncc1C(=O)Nc1nc2c(s1)CN(C(=O)c1ccc(OC(F)(F)F)c(Cl)n1)C2 [Example 997] | 0.001 to 0.1 | ≥ 10
COc1cnc(Cl)cc1-c1cc(C)ncc1C(=O)Nc1nc2c(s1)CN(C(=O)c1nc(C)cc(C(F)(F)F)c1C)C2 [Example 999, 2′-chloro-N-(5-(3,6-dimethyl-4-(trifluoromethyl)picolinoyl)-5,6-dihydro-4H-pyrrolo[3,4-d]thiazol-2-yl)-5′-methoxy-6-methyl-[4,4′-bipyridine]-3-carboxamide] | 0.001 to 0.1 | ≥ 10
COc1nc(C(F)(F)F)ccc1C(=O)N1Cc2nc(NC(=O)c3cnc(C)cc3-c3cc(Cl)cnc3OC)sc2C1 [Example 1003, 5-chloro-2-methoxy-N-(5-(2-methoxy-6-(trifluoromethyl)nicotinoyl)-5,6-dihydro-4H-pyrrolo[3,4-d]thiazol-2-yl)-6′-methyl-[3,4′-bipyridine]-3′-carboxamide] | 0.001 to 0.1 | ≥ 10
COc1cn2cncc2cc1-c1cc(C)ncc1C(=O)Nc1nc2c(s1)CN(C(=O)c1ccc(C(F)(F)F)nc1OC)C2 [Example 1004] | 0.001 to 0.1 | ≥ 10
COc1ccc(C#N)cc1-c1cc(C)ncc1C(=O)Nc1nc2c(s1)CN(C(=O)c1ccc(C(F)(F)F)nc1OC)C2 [Example 1005, 4-(5-cyano-2-methoxyphenyl)-N-(5-(2-methoxy-6-(trifluoromethyl)nicotinoyl)-5,6-dihydro-4H-pyrrolo[3,4-d]thiazol-2-yl)-6-methylnicotinamide] | 0.001 to 0.1 | ≥ 10
COc1cnc(Cl)cc1-c1cc(C)ncc1C(=O)Nc1nc2c(s1)CN(C(=O)c1nc(C)c(C#N)cc1F)C2 [Example 1006, 2′-chloro-N-(5-(5-cyano-3-fluoro-6-methylpicolinoyl)-5,6-dihydro-4H-pyrrolo[3,4-d]thiazol-2-yl)-5′-methoxy-6-methyl-[4,4′-bipyridine]-3-carboxamide] | 0.001 to 0.1 | ≥ 10
COc1cnc(Cl)cc1-c1cc(C)ncc1C(=O)Nc1nc2c(s1)CN(C(=O)c1ncc(OC(F)(F)F)cc1C)C2 [Example 1007, 2′-chloro-5′-methoxy-6-methyl-N-(5-(3-methyl-5-(trifluoromethoxy)picolinoyl)-5,6-dihydro-4H-pyrrolo[3,4-d]thiazol-2-yl)-[4,4′-bipyridine]-3-carboxamide] | 0.001 to 0.1 | ≥ 10
COc1cnc(Cl)cc1-c1cc(C)ncc1C(=O)Nc1nc2c(s1)CN(C(=O)c1ccc(OC(F)F)c(C)n1)C2 [Example 1008, 2′-chloro-N-(5-(5-(difluoromethoxy)-6-methylpicolinoyl)-5,6-dihydro-4H-pyrrolo[3,4-d]thiazol-2-yl)-5′-methoxy-6-methyl-[4,4′-bipyridine]-3-carboxamide] | 0.001 to 0.1 | ≥ 10
COc1cnc(Cl)cc1-c1cc(C)ncc1C(=O)Nc1nc2c(s1)CN(C(=O)c1cnc(OC(F)(F)F)cc1C)C2 [Example 1009, 2′-chloro-5′-methoxy-6-methyl-N-(5-(4-methyl-6-(trifluoromethoxy)nicotinoyl)-5,6-dihydro-4H-pyrrolo[3,4-d]thiazol-2-yl)-[4,4′-bipyridine]-3-carboxamide] | 0.001 to 0.1 | ≥ 10
COc1cc2c(cnn2C)cc1-c1cc(C)ncc1C(=O)Nc1nc2c(s1)CN(C(=O)c1ccc(C(F)(F)F)nc1OC)C2 [Example 1010, 4-(6-methoxy-1-methyl-1H-indazol-S-yl)-N-(5-(2-methoxy-6-(trifluoromethyl)nicotinoyl)-5,6-dihydro-4H-pyrrolo[3,4-d]thiazol-2-yl)-6-methylnicotinamide] | 0.001 to 0.1 | ≥ 10
COc1cnc(Cl)cc1-c1cc(C)ncc1C(=O)Nc1nc2c(s1)CN(C(=O)c1ncc(C)c(C(F)(F)F)c1C)C2 [Example 1011, 2′-chloro-N-(5-(3,5-dimethyl-4-(trifluoromethyl)picolinoyl)-5,6-dihydro-4H-pyrrolo[3,4-d]thiazol-2-yl)-5′-methoxy-6-methyl-[4,4′-bipyridine]-3-carboxamide] | 0.001 to 0.1 | ≥ 10
COc1cnc(Cl)cc1-c1cc(C)ncc1C(=O)Nc1nc2c(s1)CN(C(=O)c1nc(C(F)(F)F)c(C)cc1C)C2 [Example 1012, 2′-chloro-N-(5-(3,5-dimethyl-6-(trifluoromethyl)picolinoyl)-5,6-dihydro-4H-pyrrolo[3,4-d]thiazol-2-yl)-5′-methoxy-6-methyl-[4,4′-bipyridine]-3-carboxamide] | 0.001 to 0.1 | ≥ 10
COc1cccc(F)c1-c1cc(C)ncc1C(=O)Nc1nc2c(s1)CN(C(=O)c1ccc(C(F)(F)F)nc1OC)C2 [Example 1013, 4-(2-fluoro-6-methoxyphenyl)-N-(5-(2-methoxy-6-(trifluoromethyl)nicotinoyl)-5,6-dihydro-4H-pyrrolo[3,4-d]thiazol-2-yl)-6-methylnicotinamide] | 0.001 to 0.1 | ≥ 10
COc1cnc(Cl)cc1-c1cc(C)ncc1C(=O)Nc1nc2c(s1)CN(C(=O)c1nc(C)c(C(F)(F)F)cc1F)C2 [Example 1014, 2′-chloro-N-(5-(3-fluoro-6-methyl-5-(trifluoromethyl)picolinoyl)-5,6-dihydro-4H-pyrrolo[3,4-d]thiazol-2-yl)-5′-methoxy-6-methyl-[4,4′-bipyridine]-3-carboxamide] | 0.001 to 0.1 | ≥ 10
COc1cnc(Cl)cc1-c1cc(C)ncc1C(=O)Nc1nc2c(s1)CN(C(=O)c1ccc(C#N)c(C(F)F)n1)C2 [Example 1015, 2′-chloro-N-(5-(5-cyano-6-(difluoromethyl)picolinoyl)-5,6-dibydro-4H-pyrrolo[3,4-d]thiazol-2-yl)-5′-methoxy-6-methyl-[4,4′-bipyridine]-3-carboxamide] | 0.001 to 0.1 | ≥ 10
COc1cnc(C(F)F)cc1-c1cc(C)ncc1C(=O)Nc1nc2c(s1)CN(C(=O)c1ccc(C(F)(F)F)nc1OC)C2 [Example 1016, 2′-(difluoromethyl)-5′-methoxy-N-(5-(2-methoxy-6-(trifluoromethyl)nicotinoyl)-5,6-dihydro-4H-pyrrolo[3,4-d]thiazol-2-yl)-6-methyl-[4,4′-bipyridine]-3-carboxamide] | 0.001 to 0.1 | ≥ 10
